Test results from PubChem BioAssay (NCI).
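Protocol summary: plate cells (96-well), add compound at 5 concentrations, incubate 48 h, interpolate endpoints linearly. At the TGI there is no net growth.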

Columns and labels:
Assay in all cases: NCI tumour cell line growth inhibition, 48 h
[1] = tested on: SK-MEL-28 melanoma
[2] = tested on: PC-3 prostate
[3] = tested on: K-562 leukemia
[4] = tested on: ACHN renal
[5] = tested on: BT-549 breast
[6] = tested on: CAKI-1 renal
[7] = tested on: MDA-MB-231 breast
[8] = tested on: UACC-62 melanoma
[9] = tested on: COLO 205 colon
[10] = tested on: T-47D breast

SMILES | TGI [1] [µM] | TGI [2] [µM] | TGI [3] [µM] | TGI [4] [µM] | TGI [5] [µM] | TGI [6] [µM] | TGI [7] [µM] | TGI [8] [µM] | TGI [9] [µM] | TGI [10] [µM]
O=c1cc(N2CCCC2)[nH]c(=O)n1-c1ccc(Cl)cc1 | > 100 | > 100 | > 100 | > 100 | > 100 | > 100 | > 100 | > 100 | > 100 | > 100
O=S(=O)(O)c1ccc2c(N=Nc3ccc(Sc4ccc(N=Nc5c(O)ccc6cc(S(=O)(=O)O)ccc56)cc4)cc3)c(O)ccc2c1 | > 100 | > 100 | > 100 | > 100 | > 100 | > 100 | > 100 | > 100 | > 100 | > 100
Cc1c(O)c(=O)ccn1CCc1ccc(O)cc1 | > 100 | > 100 | > 100 | > 100 | > 100 | 32 | 50.3 | 12.8 | > 100 | > 100
COc1ccc(-n2cnc3c(NC(Cc4ccccc4)C(=O)O)ncnc32)cc1 (stereo not given) | > 100 | > 100 | > 100 | > 100 | > 100 | > 100 | > 100 | > 100 | > 100 | > 100
CN(C)CCNC(=O)c1c(O)ccc2c1c1c(n2CCc2ccccc2)C(=O)c2ccccc2C1=O | 4.57 | 29.1 | 6.07 | 23 | 32.6 | 19.2 | 15 | 5.56 | 34.4 | 8.5
CC(=O)NC1C(OCc2ccccc2)OC(CO)C(O)C1OCC(=O)N[C@@H](C)C(=O)N[C@H](CCC(=O)NCCCNc1ccc([N+](=O)[O-])c2[nH]c3ccccc3c(=O)c12)C(N)=O (stereo not given in full) | > 100 | > 100 | > 100 | > 100 | 96.9 | > 100 | > 100 | > 100 | > 100 | > 100
O=C1c2cc([N+](=O)[O-])sc2C(=O)c2c([N+](=O)[O-])csc21 | 1.92 | 3.09 | 0.399 | 0.779 | 1.93 | 2.48 | 2.19 | 1.19 | 3.26 | 4.09
COC(=O)c1cc(/C=C\c2cc(OC)ccc2OC)ccc1OC | 59.7 | > 100 | 86 | > 100 | > 100 | > 100 | > 100 | 90.8 | 59.7 | 52.1
O=C1CC(c2ccccc2)S(=O)c2ccccc2N1 (stereo not given) | > 100 | > 100 | > 100 | > 100 | > 100 | > 100 | > 100 | > 100 | > 100 | > 100
CCOC(=O)C1=C(C)N(Cc2ccccc2)C2(O)C=CC(=O)C3=C(O)c4ccccc4C(=O)C312 (stereo not given) | > 100 | > 100 | 61 | 34.6 | 20.2 | 37.2 | 37.8 | 31.1 | 30.4 | 45
CC/C(N)=N\NC(=O)OC(C)(C)C | > 100 | > 100 | > 100 | > 100 | > 100 | > 100 | > 100 | > 100 | > 100 | > 100
C[C@H](CCC(=O)NCC(=O)O)[C@H]1CC[C@H]2[C@@H]3[C@H](O)C[C@@H]4C[C@H](O)CC[C@]4(C)[C@H]3CC[C@]12C | > 100 | > 100 | > 100 | > 100 | > 100 | > 100 | > 100 | > 100 | > 100 | > 100
CC1C2(C)OCC(C#N)(C(=N)O2)C1(C#N)C#N (stereo not given) | 97.6 | 83.3 | > 100 | > 100 | > 100 | 25 | 42.8 | 76.1 | 27.8 | 30.2
COC(=O)C(NC(=O)OC(C)(C)C)P(=O)(OC)OC (stereo not given) | > 100 | > 100 | > 100 | > 100 | > 100 | > 100 | > 100 | > 100 | > 100 | > 100
CCOC(=O)C(C/C=C/CO)N(C)C(=O)OC(C)(C)C (stereo not given) | > 100 | > 100 | > 100 | > 100 | > 100 | > 100 | > 100 | > 100 | > 100 | > 100
CN1CCN([C@H]2C[C@H]3[C@@H]4CC=C5C[C@@H](O)CC[C@]5(C)[C@H]4CC[C@]3(C)[C@H]2O)CC1 | > 57.3 | > 86.6 | 39.7 | > 100 | > 100 | > 100 | > 64.7 | > 60.5 | > 100 | > 77.8
Cc1ccc(S[C@@H](C)[C@@](O)(C(N)=O)c2ccccc2)cc1 | > 100 | > 100 | 44.5 | > 100 | > 100 | 30.7 | 46 | > 100 | > 100 | > 100
